PubChem BioAssay AID330 (DTP/NCI, 2004)
Where “and” joins values, the source holds several entries; their conditions need not be identical. Identical values can stand only once. Toxic doses and inconclusive results are not listed.

Test system: P388 leukemia ip, CD2F1 mice, survival T/C
Test: NCI In Vivo Anticancer Drug Screen. Data for tumor model P388 Leukemia (intraperitoneal) in CD2F1 (CDF1) mice
Conditions: endpoint: median survival time, higher = longer survival
Summary of the method: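 Mice carrying the transplanted tumor received test compound or vehicle. Survival was recorded in each group, and the value is the treated-group measurement divided by that of the vehicle-treated control group.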

[1] = dose: 6.25 mg/kg/injection, schedule: Q01DX009 (ip), vehicle: saline with Tween-80
[2] = dose: 12.5 mg/kg/injection, schedule: Q01DX009 (ip), vehicle: saline with Tween-80
[3] = dose: 25.0 mg/kg/injection, schedule: Q01DX009 (ip), vehicle: saline with Tween-80
[4] = dose: 50.0 mg/kg/injection, schedule: Q01DX005 (ip), vehicle: saline with Tween-80
[5] = dose: 50.0 mg/kg/injection, schedule: Q01DX009 (ip), vehicle: saline with Tween-80
[6] = dose: 100.0 mg/kg/injection, schedule: Q01DX005 (ip), vehicle: saline with Tween-80
[7] = dose: 200.0 mg/kg/injection, schedule: Q01DX005 (ip), vehicle: saline with Tween-80
[8] = dose: 100.0 mg/kg/injection, schedule: Q04DX002 (ip), vehicle: saline with Tween-80
[9] = dose: 200.0 mg/kg/injection, schedule: Q04DX002 (ip), vehicle: saline with Tween-80
[10] = dose: 50.0 mg/kg/injection, schedule: Q01DX005 (ip), vehicle: Klucel (hydroxypropylcellulose) (HPC)
[11] = dose: 100.0 mg/kg/injection, schedule: Q01DX005 (ip), vehicle: Klucel (hydroxypropylcellulose) (HPC)
[12] = dose: 200.0 mg/kg/injection, schedule: Q01DX005 (ip), vehicle: Klucel (hydroxypropylcellulose) (HPC)
[13] = dose: 50.0 mg/kg/injection, schedule: Q01DX009 (ip), vehicle: saline
[14] = dose: 100.0 mg/kg/injection, schedule: Q01DX009 (ip), vehicle: saline
[15] = dose: 200.0 mg/kg/injection, schedule: Q01DX009 (ip), vehicle: saline
[16] = dose: 60.0 mg/kg/injection, schedule: Q01DX005 (ip), vehicle: saline with Tween-80
[17] = dose: 6.25 mg/kg/injection, schedule: Q01DX009 (ip), vehicle: Klucel (hydroxypropylcellulose) (HPC)

CCN(CC)CCOc1ccc(/C(=C(\Cl)c2ccccc2)c2ccccc2)cc1
T/C (dose: 3.13 mg/kg/injection, schedule: Q01DX009 (ip), vehicle: saline with Tween-80): 96 % of control | T/C [1]: 119 % of control | T/C [2]: 117 % of control | T/C [3]: 122 % of control | T/C [4]: 93 % of control | T/C [5]: 104 % of control | T/C [6]: 96 % of control | T/C [7]: 93 % of control

Nn1cnc2c(nnn2Cc2ccccc2)c1=O
T/C [8]: 104 % of control | T/C [9]: 100 % of control

O=C(O)C[CH2][Sn]([Cl])([Cl])[CH2]CC(=O)O
T/C [10]: 98 % of control | T/C [11]: 98 % of control | T/C [12]: 91 % of control

NC1CCCC1C(=O)O (stereo unspecified)
T/C [13]: 96 % of control | T/C [14]: 100 % of control | T/C [15]: 102 % of control

COc1c(C)cc(Cc2ccc3c(c2)OCO3)cc1C
T/C [10]: 109 % of control | T/C [11]: 109 % of control | T/C [12]: 113 % of control

CC(C)[CH2][Pb]([CH2]C(C)C)([CH2]C(C)C)[n]1ccnc1
T/C (dose: 3.12 mg/kg/injection, schedule: Q01DX009 (ip), vehicle: saline): 101 % of control | T/C (dose: 6.25 mg/kg/injection, schedule: Q01DX009 (ip), vehicle: saline): 108 % of control | T/C (dose: 12.5 mg/kg/injection, schedule: Q01DX009 (ip), vehicle: saline): 111 % of control

NC1(C(=O)NCSc2ccccc2)CC=CCC1 (stereo unspecified)
T/C (dose: 45.5 mg/kg/injection, schedule: Q01DX005 (ip), vehicle: Klucel (hydroxypropylcellulose) (HPC)): 97 % of control | T/C (dose: 91.0 mg/kg/injection, schedule: Q01DX005 (ip), vehicle: Klucel (hydroxypropylcellulose) (HPC)): 103 % of control | T/C (dose: 182.0 mg/kg/injection, schedule: Q01DX005 (ip), vehicle: Klucel (hydroxypropylcellulose) (HPC)): 96 % of control

C/C(N=NC(=S)N1CC(C)OC(C)C1)=C1\C=CC=CN1O (stereo unspecified)
T/C [4]: 111 % of control | T/C [6]: 104 % of control | T/C [7]: 106 % of control

CCOC(=O)NC(C(=O)N(C(=O)NC1CCCCC1)C1CCCCC1)C(C)C (stereo unspecified)
T/C [10]: 100 % of control | T/C [11]: 95 % of control | T/C [12]: 90 % of control

Cc1ccnc(C2=C(O)c3ccccc3C2=O)c1
T/C [10]: 102 % of control | T/C [11]: 90 % of control | T/C [12]: 91 % of control

CCOCNC=O
T/C (dose: 125.0 mg/kg/injection, schedule: Q01DX005 (ip), vehicle: water): 107 % of control | T/C (dose: 250.0 mg/kg/injection, schedule: Q01DX005 (ip), vehicle: water): 100 % of control | T/C (dose: 500.0 mg/kg/injection, schedule: Q01DX005 (ip), vehicle: water): 107 % of control | T/C (dose: 1000.0 mg/kg/injection, schedule: Q01DX005 (ip), vehicle: water): 112 % of control

Nc1ccc(C(=O)Oc2ccc(OC(=O)c3ccc(N)cc3)cc2)cc1
T/C (dose: 25.0 mg/kg/injection, schedule: Q01DX001 (ip), vehicle: Klucel (hydroxypropylcellulose) (HPC)): 99 % of control | T/C (dose: 50.0 mg/kg/injection, schedule: Q01DX001 (ip), vehicle: Klucel (hydroxypropylcellulose) (HPC)): 96 % of control | T/C (dose: 100.0 mg/kg/injection, schedule: Q01DX001 (ip), vehicle: Klucel (hydroxypropylcellulose) (HPC)): 101 % of control

Cc1oc2c(C)c3oc(=O)cc(C)c3cc2c1CN1C(=O)c2ccccc2C1=O
T/C (dose: 100.0 mg/kg/injection, schedule: Q05DX002 (ip), vehicle: saline with Tween-80): 99 % of control | T/C (dose: 200.0 mg/kg/injection, schedule: Q05DX002 (ip), vehicle: saline with Tween-80): 92 % of control | T/C (dose: 400.0 mg/kg/injection, schedule: Q05DX002 (ip), vehicle: saline with Tween-80): 98 % of control

Nc1ncnc2c1ncn2C1OC(COC(c2ccccc2)(c2ccccc2)c2ccccc2)C(O)C1O (stereo unspecified)
T/C [4]: 100 % of control | T/C [6]: 95 % of control | T/C [7]: 90 % of control

CC(C)(C)N1COc2cc3c(cc2C1)OCN(C(C)(C)C)C3
T/C [2]: 110 % of control | T/C [3]: 99 % of control | T/C [5]: 108 % of control | T/C (dose: 100.0 mg/kg/injection, schedule: Q01DX009 (ip), vehicle: saline with Tween-80): 119 % of control

COc1cc2c(cc1OC)C(C)C1c3cc4c(cc3CCN1C2)OCO4 (stereo unspecified)
T/C (dose: 50.0 mg/kg/injection, schedule: Q04DX003 (ip), vehicle: distilled water + Tween-80): 103 % of control and 100 % of control | T/C (dose: 100.0 mg/kg/injection, schedule: Q04DX003 (ip), vehicle: distilled water + Tween-80): 97 % of control and 103 % of control | T/C (dose: 200.0 mg/kg/injection, schedule: Q04DX003 (ip), vehicle: distilled water + Tween-80): 99 % of control and 103 % of control | T/C (dose: 400.0 mg/kg/injection, schedule: Q04DX003 (ip), vehicle: distilled water + Tween-80): 103 % of control

O=C(CCCc1ccc(N(CCCl)CCCl)cc1)NCC(O)C(O)C(O)C(O)CO (stereo unspecified)
T/C (dose: 15.0 mg/kg/injection, schedule: Q01DX005 (ip), vehicle: saline with Tween-80): 187 % of control | T/C (dose: 30.0 mg/kg/injection, schedule: Q01DX005 (ip), vehicle: saline with Tween-80): 201 % of control and 206 % of control | T/C [16]: 235 % of control and 250 % of control

NC(=O)c1cc([N+](=O)[O-])cc([N+](=O)[O-])c1Cl
T/C [17]: 102 % of control

C=CCC(C(=O)O)C1(C(=O)O)CCCCCC1 (stereo unspecified)
T/C [8]: 94 % of control | T/C [9]: 93 % of control | T/C (dose: 400.0 mg/kg/injection, schedule: Q04DX002 (ip), vehicle: saline with Tween-80): 92 % of control

CCOc1cc2c(cc1C(CC)c1ccc(O)cc1)OCO2 (stereo unspecified)
T/C (dose: 50.0 mg/kg/injection, schedule: Q01DX005 (ip), vehicle: distilled water + Tween-80): 93 % of control | T/C (dose: 100.0 mg/kg/injection, schedule: Q01DX005 (ip), vehicle: distilled water + Tween-80): 93 % of control | T/C (dose: 200.0 mg/kg/injection, schedule: Q01DX005 (ip), vehicle: distilled water + Tween-80): 96 % of control

COc1ccc2c(c1)C1CN(Cc3ccccc31)C2 (stereo unspecified)
T/C (dose: 100.0 mg/kg/injection, schedule: Q01DX001 (ip), vehicle: saline with Tween-80): 99 % of control

CCOC(=O)CCOCOCCC(=O)OCC
T/C [14]: 100 % of control | T/C [15]: 115 % of control | T/C (dose: 400.0 mg/kg/injection, schedule: Q01DX009 (ip), vehicle: saline): 110 % of control

O=c1[nH]c(Sc2ccccn2)ccc1[N+](=O)[O-]
T/C [17]: 97 % of control | T/C (dose: 12.5 mg/kg/injection, schedule: Q01DX009 (ip), vehicle: Klucel (hydroxypropylcellulose) (HPC)): 91 % of control | T/C (dose: 25.0 mg/kg/injection, schedule: Q01DX009 (ip), vehicle: Klucel (hydroxypropylcellulose) (HPC)): 98 % of control and 92 % of control

CC(C)(C)n1nc(C2CC2)cc1NC(=O)Nc1ccc(Cl)cc1
T/C [16]: 93 % of control | T/C (dose: 120.0 mg/kg/injection, schedule: Q01DX005 (ip), vehicle: saline with Tween-80): 94 % of control | T/C (dose: 240.0 mg/kg/injection, schedule: Q01DX005 (ip), vehicle: saline with Tween-80): 91 % of control

CC1N(N2C(=O)CS(=O)(=O)C2C)C(=O)CS1(=O)=O (stereo unspecified)
T/C [4]: 90 % of control | T/C [6]: 95 % of control | T/C [7]: 89 % of control

CN(N=O)C(=O)NCC1OC(OC2(CO)OC(CNC(=O)N(C)N=O)C(O)C2O)C(O)C(O)C1O (stereo unspecified)
T/C [13]: 103 % of control and 109 % of control and 120 % of control | T/C [14]: 112 % of control and 120 % of control | T/C [15]: 104 % of control

Cc1cc2nc3n(c2cc1C)C(=O)c1cc2ccccc2cc1-3
T/C (dose: 3.12 mg/kg/injection, schedule: Q01DX009 (ip), vehicle: saline with Tween-80): 97 % of control | T/C [1]: 94 % of control | T/C [3]: 88 % of control

Cc1cc(=O)n(Nc2ccccc2)c(O)c1C#N
T/C (dose: 50.0 mg/kg/injection, schedule: Q01DX009 (ip), vehicle: Klucel (hydroxypropylcellulose) (HPC)): 100 % of control | T/C (dose: 100.0 mg/kg/injection, schedule: Q01DX009 (ip), vehicle: Klucel (hydroxypropylcellulose) (HPC)): 94 % of control | T/C (dose: 200.0 mg/kg/injection, schedule: Q01DX009 (ip), vehicle: Klucel (hydroxypropylcellulose) (HPC)): 100 % of control

CC(C)=CCCC(C)C1(O)CCC(C)=CC1=O (stereo unspecified)
T/C (dose: 12.5 mg/kg/injection, schedule: Q01DX005 (ip), vehicle: Klucel (hydroxypropylcellulose) (HPC)): 96 % of control | T/C (dose: 25.0 mg/kg/injection, schedule: Q01DX005 (ip), vehicle: Klucel (hydroxypropylcellulose) (HPC)): 99 % of control | T/C [10]: 94 % of control | T/C [11]: 99 % of control
